# Assay results taken from PubChem BioAssay (NCI).
#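 Test compounds were applied to cells in 96-well plates for 48 hours at 5 doses. GI50 = concentration required for 50% inhibition of growth. TGI denotes the concentration required for complete inhibition of growth.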
# What was measured:
# Assay in all cases: NCI tumour cell line growth inhibition, 48 h
# XF 498 CNS = tested on: XF 498 CNS
# OVCAR-8 ovarian = tested on: OVCAR-8 ovarian
# M19-MEL melanoma = tested on: M19-MEL melanoma
# HT29 colon = tested on: HT29 colon
# DMS 273 small cell lung = tested on: DMS 273 small cell lung
# HL-60(TB) leukemia = tested on: HL-60(TB) leukemia
# A498 renal = tested on: A498 renal
# SNB-75 CNS = tested on: SNB-75 CNS
# CAKI-1 renal = tested on: CAKI-1 renal
# SK-MEL-28 melanoma = tested on: SK-MEL-28 melanoma
# SK-MEL-2 melanoma = tested on: SK-MEL-2 melanoma
# HCT-15 colon = tested on: HCT-15 colon
# UACC-62 melanoma = tested on: UACC-62 melanoma
# SR leukemia = tested on: SR leukemia
# EKVX NSCLC = tested on: EKVX NSCLC
# M14 melanoma = tested on: M14 melanoma
# HOP-18 NSCLC = tested on: HOP-18 NSCLC
# TK-10 renal = tested on: TK-10 renal
# LXFL 529 NSCLC = tested on: LXFL 529 NSCLC
# LOX IMVI melanoma = tested on: LOX IMVI melanoma
# RXF-631 renal = tested on: RXF-631 renal
# KM20L2 colon = tested on: KM20L2 colon
# OVCAR-3 ovarian = tested on: OVCAR-3 ovarian
# DMS 114 small cell lung = tested on: DMS 114 small cell lung
# K-562 leukemia = tested on: K-562 leukemia
# SK-MEL-5 melanoma = tested on: SK-MEL-5 melanoma
# OVCAR-5 ovarian = tested on: OVCAR-5 ovarian
# RPMI-8226 leukemia = tested on: RPMI-8226 leukemia
# NCI-H460 lung = tested on: NCI-H460 lung
# 786-0 renal = tested on: 786-0 renal
# U251 CNS = tested on: U251 CNS
# NCI-H522 lung = tested on: NCI-H522 lung
# HOP-62 NSCLC = tested on: HOP-62 NSCLC
# COLO 205 colon = tested on: COLO 205 colon
# SW-620 colon = tested on: SW-620 colon
# KM12 colon = tested on: KM12 colon
# HOP-92 NSCLC = tested on: HOP-92 NSCLC
# HCC-2998 colon = tested on: HCC-2998 colon
# SF-268 CNS = tested on: SF-268 CNS
# SF-539 CNS = tested on: SF-539 CNS
# SN12C renal = tested on: SN12C renal
# MALME-3M melanoma = tested on: MALME-3M melanoma
# OVCAR-4 ovarian = tested on: OVCAR-4 ovarian
# UO-31 renal = tested on: UO-31 renal
# SNB-19 CNS = tested on: SNB-19 CNS
# NCI-H226 lung = tested on: NCI-H226 lung
# ACHN renal = tested on: ACHN renal
# RXF 393 renal = tested on: RXF 393 renal
# CCRF-CEM leukemia = tested on: CCRF-CEM leukemia
# UACC-257 melanoma = tested on: UACC-257 melanoma
# IGROV1 ovarian = tested on: IGROV1 ovarian
# A549 NSCLC = tested on: A549 NSCLC
# SF-295 CNS = tested on: SF-295 CNS
# MOLT-4 leukemia = tested on: MOLT-4 leukemia
# SK-OV-3 ovarian = tested on: SK-OV-3 ovarian
# DLD-1 colon = tested on: DLD-1 colon
# SNB-78 CNS = tested on: SNB-78 CNS
# HCT-116 colon = tested on: HCT-116 colon
# NCI-H23 lung = tested on: NCI-H23 lung
# P388/ADR leukemia = tested on: P388/ADR leukemia
# P388 leukemia = tested on: P388 leukemia
# SN12K1 renal = tested on: SN12K1 renal
# NCI/ADR-RES ovarian = tested on: NCI/ADR-RES ovarian
# MCF7 breast = tested on: MCF7 breast
compound,measurement,setting,value
CC[C@@]1(O)C(=O)OCc2c1cc1n(c2=O)Cc2cc3c(NC(C)=O)c(O)ccc3nc2-1,GI50,XF 498 CNS,5.39 µM
same,TGI,XF 498 CNS,51 µM
same,GI50,OVCAR-8 ovarian,1.54 µM
same,TGI,OVCAR-8 ovarian,> 47.7 µM
same,GI50,M19-MEL melanoma,4.93 µM
same,TGI,M19-MEL melanoma,43.7 µM
same,GI50,HT29 colon,13.7 µM
same,TGI,HT29 colon,> 77.5 µM
same,GI50,DMS 273 small cell lung,0.296 µM
same,TGI,DMS 273 small cell lung,8.33 µM
same,GI50,HL-60(TB) leukemia,0.416 µM
same,TGI,HL-60(TB) leukemia,5.05 µM
same,GI50,A498 renal,5.9 µM
same,TGI,A498 renal,22.5 µM
same,GI50,SNB-75 CNS,0.744 µM
same,TGI,SNB-75 CNS,7.31 µM
same,GI50,CAKI-1 renal,0.468 µM
same,TGI,CAKI-1 renal,13.7 µM
same,GI50,SK-MEL-28 melanoma,> 25.9 µM
same,TGI,SK-MEL-28 melanoma,> 100 µM
same,GI50,SK-MEL-2 melanoma,17.8 µM
same,TGI,SK-MEL-2 melanoma,53.5 µM
same,GI50,HCT-15 colon,18 µM
same,TGI,HCT-15 colon,> 100 µM
same,GI50,UACC-62 melanoma,0.272 µM
same,TGI,UACC-62 melanoma,2.71 µM
same,GI50,SR leukemia,< 0.0148 µM
same,TGI,SR leukemia,0.108 µM
same,GI50,EKVX NSCLC,81.4 µM
same,TGI,EKVX NSCLC,> 100 µM
same,GI50,M14 melanoma,1.04 µM
same,TGI,M14 melanoma,15.8 µM
same,GI50,HOP-18 NSCLC,7.57 µM
same,TGI,HOP-18 NSCLC,> 100 µM
same,GI50,TK-10 renal,> 71.4 µM
same,TGI,TK-10 renal,> 100 µM
same,GI50,LXFL 529 NSCLC,12.5 µM
same,TGI,LXFL 529 NSCLC,> 100 µM
same,GI50,LOX IMVI melanoma,0.497 µM
same,TGI,LOX IMVI melanoma,6.31 µM
same,GI50,RXF-631 renal,4.47 µM
same,TGI,RXF-631 renal,> 100 µM
same,GI50,KM20L2 colon,16.3 µM
same,TGI,KM20L2 colon,> 100 µM
same,GI50,OVCAR-3 ovarian,9.7 µM
same,TGI,OVCAR-3 ovarian,41.1 µM
same,GI50,DMS 114 small cell lung,0.353 µM
same,TGI,DMS 114 small cell lung,7.58 µM
same,GI50,K-562 leukemia,3.47 µM
same,TGI,K-562 leukemia,> 70.2 µM
same,GI50,SK-MEL-5 melanoma,2.08 µM
same,TGI,SK-MEL-5 melanoma,8.97 µM
same,GI50,OVCAR-5 ovarian,4.19 µM
same,TGI,OVCAR-5 ovarian,> 100 µM
same,GI50,RPMI-8226 leukemia,4.58 µM
same,TGI,RPMI-8226 leukemia,56.8 µM
same,GI50,NCI-H460 lung,0.288 µM
same,TGI,NCI-H460 lung,4.24 µM
same,GI50,786-0 renal,0.373 µM
same,TGI,786-0 renal,2.17 µM
same,GI50,U251 CNS,0.252 µM
same,TGI,U251 CNS,4.46 µM
same,GI50,NCI-H522 lung,0.565 µM
same,TGI,NCI-H522 lung,14.5 µM
same,GI50,HOP-62 NSCLC,0.214 µM
same,TGI,HOP-62 NSCLC,0.631 µM
same,GI50,COLO 205 colon,17.6 µM
same,TGI,COLO 205 colon,> 100 µM
same,GI50,SW-620 colon,1.94 µM
same,TGI,SW-620 colon,> 100 µM
same,GI50,KM12 colon,14.4 µM
same,TGI,KM12 colon,> 61.3 µM
same,GI50,HOP-92 NSCLC,7.76 µM
same,TGI,HOP-92 NSCLC,51.9 µM
same,GI50,HCC-2998 colon,8.21 µM
same,TGI,HCC-2998 colon,47.1 µM
same,GI50,SF-268 CNS,0.417 µM
same,TGI,SF-268 CNS,> 52.3 µM
same,GI50,SF-539 CNS,0.388 µM
same,TGI,SF-539 CNS,1.96 µM
same,GI50,SN12C renal,0.456 µM
same,TGI,SN12C renal,> 20.8 µM
same,GI50,MALME-3M melanoma,4.83 µM
same,TGI,MALME-3M melanoma,65.5 µM
same,GI50,OVCAR-4 ovarian,14.6 µM
same,TGI,OVCAR-4 ovarian,44.7 µM
same,GI50,UO-31 renal,1.76 µM
same,TGI,UO-31 renal,16.2 µM
same,GI50,SNB-19 CNS,0.917 µM
same,TGI,SNB-19 CNS,> 56.6 µM
same,GI50,NCI-H226 lung,2.98 µM
same,TGI,NCI-H226 lung,> 20.3 µM
same,GI50,ACHN renal,0.389 µM
same,TGI,ACHN renal,2.85 µM
same,GI50,RXF 393 renal,2.34 µM
same,TGI,RXF 393 renal,20.2 µM
same,GI50,CCRF-CEM leukemia,0.0542 µM
same,TGI,CCRF-CEM leukemia,1.07 µM
same,GI50,UACC-257 melanoma,10.8 µM
same,TGI,UACC-257 melanoma,> 86.6 µM
same,GI50,IGROV1 ovarian,6.27 µM
same,TGI,IGROV1 ovarian,> 88.5 µM
same,GI50,A549 NSCLC,1.68 µM
same,TGI,A549 NSCLC,> 100 µM
same,GI50,SF-295 CNS,0.721 µM
same,TGI,SF-295 CNS,> 32.1 µM
same,GI50,MOLT-4 leukemia,0.133 µM
same,TGI,MOLT-4 leukemia,0.968 µM
same,GI50,SK-OV-3 ovarian,1.4 µM
same,TGI,SK-OV-3 ovarian,45.7 µM
same,GI50,DLD-1 colon,43.3 µM
same,TGI,DLD-1 colon,> 100 µM
same,GI50,SNB-78 CNS,28.9 µM
same,TGI,SNB-78 CNS,> 100 µM
same,GI50,HCT-116 colon,2.41 µM
same,TGI,HCT-116 colon,24.6 µM
same,GI50,NCI-H23 lung,0.762 µM
same,TGI,NCI-H23 lung,9.15 µM
CSc1nc2c(ncn2C2OCC(O)C(O)C2O)c(=O)[nH]1 (centres undefined),TGI,XF 498 CNS,> 100 µM
same,TGI,OVCAR-8 ovarian,> 100 µM
same,TGI,M19-MEL melanoma,> 100 µM
same,TGI,HT29 colon,> 100 µM
same,TGI,DMS 273 small cell lung,> 100 µM
same,TGI,HL-60(TB) leukemia,> 100 µM
same,TGI,A498 renal,> 100 µM
same,TGI,SNB-75 CNS,> 100 µM
same,TGI,SK-MEL-28 melanoma,> 100 µM
same,TGI,SK-MEL-2 melanoma,> 100 µM
same,TGI,HCT-15 colon,> 100 µM
same,TGI,UACC-62 melanoma,> 100 µM
same,TGI,EKVX NSCLC,> 100 µM
same,TGI,HOP-18 NSCLC,> 100 µM
same,TGI,P388/ADR leukemia,> 100 µM
same,TGI,LOX IMVI melanoma,> 100 µM
same,TGI,KM20L2 colon,> 100 µM
same,TGI,OVCAR-3 ovarian,> 100 µM
same,TGI,DMS 114 small cell lung,> 100 µM
same,TGI,K-562 leukemia,> 100 µM
same,TGI,SK-MEL-5 melanoma,> 100 µM
same,TGI,OVCAR-5 ovarian,> 100 µM
same,TGI,RPMI-8226 leukemia,> 100 µM
same,TGI,NCI-H460 lung,> 100 µM
same,TGI,U251 CNS,> 100 µM
same,TGI,NCI-H522 lung,> 100 µM
same,TGI,HOP-62 NSCLC,> 100 µM
same,TGI,COLO 205 colon,> 100 µM
same,TGI,SW-620 colon,> 100 µM
same,TGI,KM12 colon,> 100 µM
same,TGI,P388 leukemia,> 100 µM
same,TGI,HOP-92 NSCLC,> 100 µM
same,TGI,SN12K1 renal,> 100 µM
same,TGI,HCC-2998 colon,> 100 µM
same,TGI,SF-268 CNS,> 100 µM
same,TGI,SF-539 CNS,> 100 µM
same,TGI,SN12C renal,> 100 µM
same,TGI,MALME-3M melanoma,> 100 µM
same,TGI,OVCAR-4 ovarian,> 100 µM
same,TGI,UO-31 renal,> 100 µM
same,TGI,SNB-19 CNS,> 100 µM
same,TGI,NCI-H226 lung,> 100 µM
same,TGI,RXF 393 renal,> 100 µM
same,TGI,NCI/ADR-RES ovarian,> 100 µM
same,TGI,CCRF-CEM leukemia,> 100 µM
same,TGI,UACC-257 melanoma,> 100 µM
same,TGI,IGROV1 ovarian,> 100 µM
same,TGI,A549 NSCLC,> 100 µM
same,TGI,SF-295 CNS,> 100 µM
same,TGI,MCF7 breast,> 100 µM
same,TGI,MOLT-4 leukemia,> 100 µM
same,TGI,SK-OV-3 ovarian,> 100 µM
same,TGI,DLD-1 colon,> 100 µM
same,TGI,SNB-78 CNS,> 100 µM
same,TGI,HCT-116 colon,> 100 µM
same,TGI,NCI-H23 lung,> 100 µM
